Structures can show the parent of a compound that is named as a salt.
Molecular target: T1, PRMT5-MEP50 enzyme complex (Homo sapiens, UniProt O14744)
T1 construct: purchased BPS Bioscience (USA) 51045
Assay: In vitro PRMT5 enzyme activity assay (methylation of histone H4 arginine H4R3, ELISA absorbance at 450 nm)
Type: biochemical
Settings: S-adenosylmethionine, histone H4 peptide, 2 hours at room temperature, 8 points 10 μM to 0.128 nM
How it was run: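 Human PRMT5-MEP50 (5 μg/mL working stock) with 2 μM SAM stock on histone H4 (1-20) peptide-coated plates, compound 8-point 1:5 series from 10 μM, 2 h at room temperature. H4R3 methylation detected by antibody/HRP ELISA, absorbance 450 nm; IC50 calculated.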

T1 sequence (O14744 2-637 limits assumed): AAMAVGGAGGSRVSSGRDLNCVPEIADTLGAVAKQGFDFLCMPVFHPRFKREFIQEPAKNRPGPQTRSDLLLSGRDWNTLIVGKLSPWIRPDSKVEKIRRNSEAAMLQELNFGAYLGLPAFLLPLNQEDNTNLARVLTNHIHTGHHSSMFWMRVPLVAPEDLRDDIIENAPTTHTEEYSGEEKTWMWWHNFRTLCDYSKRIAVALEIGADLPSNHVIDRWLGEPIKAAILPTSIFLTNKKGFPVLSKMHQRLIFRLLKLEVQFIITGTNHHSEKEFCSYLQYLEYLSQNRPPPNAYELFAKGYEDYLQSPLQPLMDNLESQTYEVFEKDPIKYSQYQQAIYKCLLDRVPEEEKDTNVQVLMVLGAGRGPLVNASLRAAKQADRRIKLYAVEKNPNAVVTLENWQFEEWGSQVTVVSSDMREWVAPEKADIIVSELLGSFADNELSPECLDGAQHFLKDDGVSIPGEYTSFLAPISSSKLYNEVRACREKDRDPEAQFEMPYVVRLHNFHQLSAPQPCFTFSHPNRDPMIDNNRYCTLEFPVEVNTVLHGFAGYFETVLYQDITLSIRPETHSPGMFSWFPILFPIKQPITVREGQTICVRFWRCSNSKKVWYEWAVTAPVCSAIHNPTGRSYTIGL
T1 sequence (Q9BQA1 2-342 partner limits assumed): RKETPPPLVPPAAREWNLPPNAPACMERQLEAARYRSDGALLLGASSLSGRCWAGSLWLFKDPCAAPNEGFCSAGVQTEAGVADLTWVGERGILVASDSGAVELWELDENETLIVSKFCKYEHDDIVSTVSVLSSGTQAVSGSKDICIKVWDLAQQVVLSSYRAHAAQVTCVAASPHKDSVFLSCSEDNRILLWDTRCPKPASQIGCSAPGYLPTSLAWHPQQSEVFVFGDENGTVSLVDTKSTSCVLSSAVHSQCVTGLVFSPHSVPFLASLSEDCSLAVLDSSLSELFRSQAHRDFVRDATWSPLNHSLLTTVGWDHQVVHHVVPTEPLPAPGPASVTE

Row | Structure (SMILES) | IC50 [µM]
1 | CCN1CCC(COc2ccc3c(c2)CCN(C[C@H](O)CN2CCc4ccccc4C2)C3=O)CC1 [Example 115, 2-[(2R)-3-(3,4-dihydro-1H-isoquinolin-2-yl)-2-hydroxy-propyl]-6-[(1-ethyl-4-piperidyl)methyloxy]-3,4-dihydroisoquinolin-1-one] | 0.1 to 1
2 | CN(C)C1CCCN(c2ccc3c(c2)CCN(C[C@H](O)CN2CCc4ccccc4C2)C3=O)C1 (stereo partly drawn) [Example 116, 2-[(2R)-3-(3,4-dihydro-1H-isoquinolin-2-yl)-2-hydroxy-propyl]-6-[3-(dimethylamino)-1-piperidyl]-3,4-dihydroisoquinolin-1-one] | 0.1 to 1
3 | CN(C)CC1CCN(c2ccc3c(c2)CCN(C[C@H](O)CN2CCc4ccccc4C2)C3=O)CC1 [Example 117, 2-[(2R)-3-(3,4-dihydro-1H-isoquinolin-2-yl)-2-hydroxy-propyl]-6-[4-[(dimethylamino)methyl]-1-piperidyl]-3,4-dihydroisoquinolin-1-one] | 0.1 to 1
4 | CCN(CC)C1CCN(c2ccc3c(c2)CCN(C[C@H](O)CN2CCc4ccccc4C2)C3=O)CC1 [Example 118, 6-[4-(diethylamino)-1-piperidyl]-2-[(2R)-3-(3,4-dihydro-1H-isoquinolin-2-yl)-2-hydroxy-propyl]-3,4-dihydroisoquinolin-1-one] | 0.1 to 1
5 | CN(C)CCOC1CCN(c2ccc3c(c2)CCN(C[C@H](O)CN2CCc4ccccc4C2)C3=O)CC1 [Example 119, 2-[(2R)-3-(3,4-dihydro-1H-isoquinolin-2-yl)-2-hydroxy-propyl]-6-[4-[2-(dimethylamino)ethoxy]-1-piperidyl]-3,4-dihydroisoquinolin-1-one] | 0.1 to 1
6 | COCCN(C)C1CCN(c2ccc3c(c2)CCN(C[C@H](O)CN2CCc4ccccc4C2)C3=O)CC1 [Example 120, 2-[(2R)-3-(3,4-dihydro-1H-isoquinolin-2-yl)-2-hydroxy-propyl]-6-[4-[2-methoxyethyl(methyl)amino]-1-piperidyl]-3,4-dihydroisoquinolin-1-one] | 0.001 to 0.1
7 | O=C1c2ccc(N3CCN(C4COC4)CC3)cc2CCN1C[C@H](O)CN1CCc2ccccc2C1 [Example 121, 2-[(2R)-3-(3,4-dihydro-1H-isoquinolin-2-yl)-2-hydroxy-propyl]-6-[4-(oxetan-3-yl)piperazin-1-yl]-3,4-dihydroisoquinolin-1-one] | 0.1 to 1
8 | O=C1c2ccc(N3CCN(C4CCOCC4)CC3)cc2CCN1C[C@H](O)CN1CCc2ccccc2C1 [Example 122, 2-[(2R)-3-(3,4-dihydro-1H-isoquinolin-2-yl)-2-hydroxy-propyl]-6-(4-tetrahydropyran-4-ylpiperazin-1-yl)-3,4-dihydroisoquinolin-1-one] | 0.1 to 1
9 | CCN(CC)C1CCN(c2ccc3c(c2)C(C)(C)CN(C[C@H](O)CN2CCc4ccccc4C2)C3=O)CC1 [Example 123, 6-[4-(diethylamino)-1-piperidyl]-2-[(2R)-3-(3,4-dihydro-1H-isoquinolin-2-yl)-2-hydroxy-propyl]-4,4-dimethyl-3H-isoquinolin-1-one] | 0.1 to 1
10 | CC1(C)CN(C[C@H](O)CN2CCc3ccccc3C2)C(=O)c2ccc(N3CCC(N4CCCC4)CC3)cc21 [Example 124, 2-[(2R)-3-(3,4-dihydro-1H-isoquinolin-2-yl)-2-hydroxy-propyl]-4,4-dimethyl-6-(4-pyrrolidin-1-yl-1-piperidyl)-3H-isoquinolin-1-one] | 0.001 to 0.1
11 | CC1(C)CN(C[C@H](O)CN2CCc3ccccc3C2)C(=O)c2ccc(N3CCN(C=O)CC3)cc21 [Example 125, 4-[2-[(2R)-3-(3,4-dihydro-1H-isoquinolin-2-yl)-2-hydroxy-propyl]-4,4-dimethyl-1-oxo-3H-isoquinolin-6-yl]piperazine-1-carbaldehyde] | 0.1 to 1
12 | CN(C)C1CCN(c2ccc3c(c2)C(C)(C)CN(C[C@H](O)CN2CCc4ccccc4C2)C3=O)CC1 [Example 126, 2-[(2R)-3-(3,4-dihydro-1H-isoquinolin-2-yl)-2-hydroxy-propyl]-6-[4-(dimethylamino)-1-piperidyl]-4,4-dimethyl-3H-isoquinolin-1-one; dihydrochloride] | 0.001 to 0.1
13 | O=C1c2ccc(N3CCN(C4CCOC4)CC3)cc2CCN1C[C@H](O)CN1CCc2ccccc2C1 (stereo partly drawn) [Example 127, 2-[(2R)-3-(3,4-dihydro-1H-isoquinolin-2-yl)-2-hydroxy-propyl]-6-(4-tetrahydrofuran-3-ylpiperazin-1-yl)-3,4-dihydroisoquinolin-1-one] | 0.001 to 0.1
14 | CC(=O)N1CCN(c2cc(F)c3c(c2)CCN(C[C@H](O)CN2CCc4ccccc4C2)C3=O)CC1 [Example 128, 6-(4-acetylpiperazin-1-yl)-2-[(2R)-3-(3,4-dihydro-1H-isoquinolin-2-yl)-2-hydroxy-propyl]-8-fluoro-3,4-dihydroisoquinolin-1-one] | 0.1 to 1
15 | CC(=O)N1CCN(c2ccc3c(c2)CCN(C(C)C(O)CN2CCc4ccccc4C2)C3=O)CC1 (stereo not shown) [Example 129, 6-(4-acetylpiperazin-1-yl)-2-[3-(3,4-dihydro-1H-isoquinolin-2-yl)-2-hydroxy-1-methyl-propyl]-3,4-dihydroisoquinolin-1-one] | 0.1 to 1
16 | CC1(C)CN(C[C@H](O)CN2CCc3ccccc3C2)C(=O)c2ccc(N3CCN(C=O)CC3)cc21 [Example 130, 4-[2-[(2R)-3-(3,4-dihydro-1H-isoquinolin-2-yl)-2-hydroxy-propyl]-4,4-dimethyl-1-oxo-3H-isoquinolin-6-yl]piperazine-1-carbaldehyde; hydrochloride] | 1 to 10
17 | CCN1CCC(Oc2ccc3c(c2)C(C)(C)CN(C[C@H](O)CN2CCc4ccccc4C2)C3=O)CC1 [Example 131, 2-[(2R)-3-(3,4-dihydro-1H-isoquinolin-2-yl)-2-hydroxy-propyl]-6-[(1-ethyl-4-piperidyl)oxy]-4,4-dimethyl-3H-isoquinolin-1-one] | 0.001 to 0.1
18 | O=C1c2ccc(N3CCOCC3)cc2C(F)(F)CN1C[C@H](O)CN1CCc2ccccc2C1 [Example 132, 2-[(2R)-3-(3,4-dihydro-1H-isoquinolin-2-yl)-2-hydroxy-propyl]-4,4-difluoro-6-morpholino-3H-isoquinolin-1-one] | 1 to 10
19 | CN1CCC(Oc2ccc3c(c2)CCN(C[C@H](O)CN2CCc4ccccc4C2)C3=O)C1 (stereo partly drawn) [Example 133, 2-[(2R)-3-(3,4-dihydro-1H-isoquinolin-2-yl)-2-hydroxy-propyl]-6-(1-methylpyrrolidin-3-yl)oxy-3,4-dihydroisoquinolin-1-one] | 0.001 to 0.1
20 | CCN1CCC(Oc2ccc3c(c2)CCN(C[C@H](O)CN2CCc4ccccc4C2)C3=O)C1 (stereo partly drawn) [Example 134, 2-[(2R)-3-(3,4-dihydro-1H-isoquinolin-2-yl)-2-hydroxy-propyl]-6-(1-ethylpyrrolidin-3-yl)oxy-3,4-dihydroisoquinolin-1-one] | 0.1 to 1
21 | O=C1c2ccc(OC3CCN(C4COC4)CC3)cc2CCN1C[C@H](O)CN1CCc2ccccc2C1 [Example 136, 2-[(2R)-3-(3,4-dihydro-1H-isoquinolin-2-yl)-2-hydroxy-propyl]-6-[[1-(oxetan-3-yl)-4-piperidyl]oxy]-3,4-dihydroisoquinolin-1-one] | 0.001 to 0.1
22 | O=C1c2ccc(C#CCO)cc2CCN1C[C@H](O)CN1CCc2ccccc2C1 [Example 137, 2-[(2R)-3-(3,4-dihydro-1H-isoquinolin-2-yl)-2-hydroxypropyl]-6-(3-hydroxyprop-1-ynyl)-3,4-dihydroisoquinolin-1-one] | 0.1 to 1

Source: patent US12331035B2, “Bicyclic compound and use thereof” (SK BIOPHARMACEUTICALS CO., LTD., priority 2019, dated 2025)
